Biological target: T1, Ba/F3 cell EGFR Exon20 ins NPH (Homo sapiens, UniProt P00533, INS773NPH)
T1 construct: expressed in transfected cells; host or cells: Ba/F3
Assay: Ba/F3 cell proliferation suppression, EGFR Exon20 ins NPH
Format: cell-based
Details: GI50 class; Ba/F3 cell line with NPH inserted at Exon20 of EGFR; 72 hours
Outline: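 After 72 h compound exposure (twelve 3-fold steps, 0.3 nM–50 um final), live cells were measured by CellTiter-Glo luminescence and growth expressed as % of control to derive GI50. Cells were seeded at 3000–5000 per well a day earlier; Ba/F3 medium contained IL-3; three repeats.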

| SMILES | Ba/F3 (NPH) Activity |
| --- | --- |
| C=CC(=O)Nc1cc(Nc2cc(N3OCC[C@@H]3c3cccc(Cl)c3Cl)ncn2)c(OC)cc1N1CC[C@@H](N(C)C)C1 [compound 526, N-(5-((6-((R)-3-(2,3-dichlorophenyl)isoxazolidine-2-yl)pyrimidine-4-yl)amino)-2-((R)-3-(dimethylamino)pyrolidine-1-yl)-4-methoxyphenyl) acrylamide] | A (GI50 < 50 nM) |
| C=CC(=O)Nc1cc(Nc2cc(N3OCC[C@@H]3c3ccc(F)cc3F)ncn2)c(OC)cc1N1CCN(C2CC2)C[C@@H]1C [compound 474, N-(2-((S)-4-cyclopropyl-2-methylpiperazine-(2,4-1-yl)-5-((6-((R)-3-difluorophenyl)isoxazolidine-2-yl)pyrimidine-4-yl)amino)-4-methoxyphenyl) acrylamide] | A (GI50 < 50 nM) |
| C=CCN1CCN(C2CCN(c3cc(OC)c(Nc4cc(N5OCC[C@@H]5c5ccc(F)c(F)c5)ncn4)cc3NC(=O)C=C)CC2)CC1 [Example 212, N-(2-(4-(4-allylpiperazine-1-yl)piperidine-1-yl)-5-((6-((R)-3-(3,4-difluorophenyl)isoxazolidine-2-yl)pyrimidine-4-yl)amino)-4-methoxyphenyl) acrylamide] | A (GI50 < 50 nM) |
| C=CC(=O)Nc1cc(Nc2cc(N3OCC[C@@H]3c3cccc(C(F)(F)F)c3)ncn2)c(OC)cc1N1CCC(N2CCN(C3CC3)CC2)CC1 [Example 148, N-(2-(4-(4-cyclopropylpiperazine-1-yl)piperidine-1-yl)-4-methoxy-5-((6-((R)-3-(3-(trifluoromethyl)phenyl)isoxazolidine-2-yl)pyrimidine-4-yl)amino)phenyl)acrylamide] | A (GI50 < 50 nM) |
| C=CCN1CCN(C2CCN(c3cc(OC)c(Nc4cc(N5OCC[C@@H]5c5cccc(OC)c5)ncn4)cc3NC(=O)C=C)CC2)CC1 [Example 215, N-(2-(4-(4-allylpiperazine-1-yl)piperidine-1-yl)-4-methoxy-5-((6-((R)-3-(3-methoxyphenyl)isoxazolidine-2-yl)pyrimidine-4-yl)amino)phenyl) acrylamide] | C (500 nM ≤ GI50 < 5000 nM) |
| C=CC(=O)Nc1cc(Nc2cc(N3OCC[C@@H]3c3ccc(F)cc3F)ncn2)c(OC)cc1N1CCN(CC)CC1 [compound 351, N-(5-((6-((R)-3-(2,4-difluorophenyl)isoxazolidine-2-yl)pyrimidine-4-yl)amino)-2-(4-ethylpiperazine-1-yl)-4-methoxyphenyl) acrylamide] | A (GI50 < 50 nM) |
| C=CC(=O)Nc1cc(Nc2cc(N3OCC[C@@H]3c3ccc(Cl)c(F)c3)ncn2)c(OC)cc1N1CCC(N2CCN(CC)CC2)CC1 [Example 262, N-(5-((6-((R)-3-(4-chloro-3-fluorophenyl)isoxazolidine-2-yl)pyrimidine-4-yl)amino)-2-(4-(4-ethylpiperazine-1-yl)piperidine-1-yl)-4-methoxyphenyl) acrylamide] | A (GI50 < 50 nM) |
| C=CC(=O)Nc1cc(Nc2cc(N3OCC[C@@H]3c3cc(F)ccc3F)ncn2)c(OC)cc1N1CCC(N2C[C@H](C)N(C3CC3)C[C@H]2C)CC1 [Example 173, N-(2-(4-((2R,5S)-4-cyclopropyl-2,5-dimethylpiperazine-1-yl)piperidine-1-yl)-5-((6-((R)-3-(2,5-difluorophenyl)isoxazolidine-2-yl)pyrimidine-4-yl)amino)-4-methoxyphenyl) acrylamide] | A (GI50 < 50 nM) |
| C=CC(=O)Nc1cc(Nc2cc(N3OCC[C@@H]3c3ccc(F)c(Cl)c3F)ncn2)c(OC)cc1N(C)CCN(C)C [compound 603, N-(5-((6-((R)-3-(3-chloro-2,4-difluorophenyl)isoxazolidine-2-yl)pyrimidine-4-yl)amino)-2-((2-(dimethylamino)ethyl)(methyl)amino)-4-methoxyphenyl) acrylamide] | A (GI50 < 50 nM) |
| C=CC(=O)Nc1cc(Nc2cc(N3OCC[C@@H]3c3cccc(F)c3F)ncn2)c(OC)cc1N1CCC(N2CCN(C3CC3)[C@H](C)C2)CC1 [Example 176, N-(2-(4-((R)-4-cyclopropyl-3-methylpiperazine-1-yl)piperidine-1-yl)-5-((6-((R)-3-(2,3-difluorophenyl)isoxazolidine-2-yl)pyrimidine-4-yl)amino)-4-methoxyphenyl) acrylamide] | A (GI50 < 50 nM) |
| C=CC(=O)Nc1cc(Nc2cc(N3OCC[C@@H]3c3cccc(F)c3F)ncn2)c(OC)cc1N1CCN(C(C)C)CC1 [compound 334, N-(5-((6-((R)-3-(2,3-difluorophenyl)isoxazolidine-2-yl)pyrimidine-4-yl)amino)-2-(4-isopropylpiperazine-1-yl)-4-methoxyphenyl) acrylamide] | A (GI50 < 50 nM) |

Now from value to compound:

| Ba/F3 (NPH) Activity | SMILES |
| --- | --- |
| A (GI50 < 50 nM) | C=CC(=O)Nc1cc(Nc2cc(N3OCC[C@@H]3c3cccc(F)c3)ncn2)c(OC)cc1N1CCOCC1 [compound 840, N-(5-((6-((R)-3-(3-fluorophenyl)isoxazolidine-2-yl)pyrimidine-4-yl)amino)-4-methoxy-2-morpholinophenyl) acrylamide] |
| A (GI50 < 50 nM) | C=CC(=O)Nc1cc(Nc2cc(N3OCC[C@@H]3c3cccc(Cl)c3Cl)ncn2)c(OC)cc1N1CCC(N2C[C@@H]3C[C@H]2CN3CC)CC1 [compound 607, N-(5-((6-((R)-3-(2,3-dichlorophenyl)isoxazolidine-2-yl)pyrimidine-4-yl)amino)-2-(4-((1S,4S)-5-ethyl-2,5-diazabicyclo[2.2.1]heptane-2-yl)piperidine-1-yl)-4-methoxyphenyl) acrylamide] |
| A (GI50 < 50 nM) | C=CC(=O)Nc1cc(Nc2cc(N3OCC[C@@H]3Cc3cccc(F)c3C)ncn2)c(OC)cc1N1CCC(N2CCN(C3CC3)[C@@H](C)C2)CC1 [compound 1005, N-(2-(4-((S)-4-cyclopropyl-3-methylpiperazine-1-yl)piperidine-1-yl)-5-((6-((S)-3-(3-fluoro-2-methylbenzyl)isoxazolidine-2-yl)pyrimidine-4-yl)amino)-4-methoxyphenyl) acrylamide] |
| B (50 nM ≤ GI50 < 500 nM) | C=CC(=O)Nc1cc(Nc2cc(N3OCC[C@@H]3c3ccc(Cl)c(Cl)c3F)ncn2)c(OC)cc1N1CCC(N2C[C@@H](C)O[C@@H](C)C2)CC1 [compound 773, N-(5-((6-((R)-3-(3,4-dichloro-2-fluorophenyl)isoxazolidine-2-yl)pyrimidine-4-yl)amino)-2-(4-((2S,6R)-2,6-dimethylmorpholino)piperidine-1-yl)-4-methoxyphenyl) acrylamide] |
| A (GI50 < 50 nM) | C=CC(=O)Nc1cc(Nc2cc(N3OCC[C@@H]3c3cccc(C)c3F)ncn2)c(OC)cc1N(C)CCN(C)C [compound 846, N-(2-((2-(dimethylamino)ethyl) (methyl)amino)-5-((6-((R)-3-(2-fluoro-3-methylphenyl)isoxazolidine-2-yl)pyrimidine-4-yl)amino)-4-methoxyphenyl) acrylamide] |
| B (50 nM ≤ GI50 < 500 nM) | C=CC(=O)Nc1cc(Nc2cc(N3OCC[C@@H]3c3cc(F)cc(F)c3)ncn2)c(OC)cc1N1CCC(N2CCN(C)CC2=O)CC1 [compound 722, N-(5-((6-((R)-3-(3,5-difluorophenyl)isoxazolidine-2-yl)pyrimidine-4-yl)amino)-4-methoxy-2-(4-(4-methyl-2-oxopiperazine-1-yl)piperidine-1-yl)phenyl)acrylamide] |
| A (GI50 < 50 nM) | C=CC(=O)Nc1cc(Nc2cc(N3OCC[C@@H]3c3ccc(Cl)c(Cl)c3)ncn2)c(OC)cc1N1CCC(N2CCN(C3COC3)CC2)CC1 [compound 931, N-(5-((6-((R)-3-(3,4-dichlorophenyl)isoxazolidine-2-yl)pyrimidine-4-yl)amino)-4-methoxy-2-(4-(4-(oxetane-3-yl)piperazine-1-yl)piperidine-1-yl)phenyl) acrylamide] |
| A (GI50 < 50 nM) | C=CC(=O)Nc1cc(Nc2cc(N3OCC[C@@H]3c3cccc(Cl)c3F)ncn2)c(OC)cc1N1CCC(N2CC[C@@H](N(C)C)C2)CC1 [compound 914, N-(5-((6-((R)-3-(3-chloro-2-fluorophenyl)isoxazolidine-2-yl)pyrimidine-4-yl)amino)-2-(4-((R)-3-(dimethylamino)pyrolidine-1-yl)piperidine-1-yl)-4-methoxyphenyl) acrylamide] |
| C (500 nM ≤ GI50 < 5000 nM) | C=CC(=O)Nc1cc(Nc2cc(N3OCC[C@H]3Cc3ccccc3)ncn2)c(OC)cc1N1CCN(C2CCOCC2)CC1 [compound 975, N-(5-((6-((R)-3-benzylisoxazolidine-2-yl)pyrimidine-4-yl)amino)-4-methoxy-2-(4-(tetrahydro-2H-pyran-4-yl)piperazine-1-yl)phenyl)acrylamide] |
| A (GI50 < 50 nM) | C=CC(=O)Nc1cc(Nc2cc(N3OCC[C@@H]3c3ccc(Cl)c(Cl)c3)ncn2)c(OC)cc1N1CCC(N2CCOCC2)CC1 [compound 683, N-(5-((6-((R)-3-(3,4-dichlorophenyl)isoxazolidine-2-yl)pyrimidine-4-yl)amino)-4-methoxy-2-(4-morpholinopiperidine-1-yl)phenyl)acrylamide] |
| A (GI50 < 50 nM) | C=CC(=O)Nc1cc(Nc2cc(N3OCC[C@@H]3Cc3ccccc3)ncn2)c(OC)cc1N1CCN(C2CCOCC2)CC1 [compound 971, N-(5-((6-((S)-3-benzylisoxazolidine-2-yl)pyrimidine-4-yl)amino)-4-methoxy-2-(4-(tetrahydro-2H-pyran-4-yl)piperazine-1-yl)phenyl) acrylamide] |
| B (50 nM ≤ GI50 < 500 nM) | C=CC(=O)Nc1cc(Nc2cc(N3OCC[C@@H]3c3cccc(OC)c3)ncn2)c(OC)cc1N1CC[C@@H](N2CCOCC2)C1 [compound 777, N-(4-methoxy-5-((6-((R)-3-(3-methoxyphenyl)isoxazolidine-2-yl)pyrimidine-4-yl)amino)-2-((R)-3-morpholinopyrolidine-1-yl)phenyl)acrylamide] |

Source: patent US12157730B2, “Heteroaryl derivative, method for producing same, and pharmaceutical composition comprising same as effective component” (VORONOI INC., priority 2019, dated 2024)
